Columns and labels:
[1] = Equilibrium interfacial tension calibration of BAK solutions, Langmuir adsorption isotherm fit; format: physicochemical; details: Langmuir fit of b275
Protocol: The dynamic interfacial tension of filtered ophthalmic formulations was measured via pendant drop tensiometry using the commercially automated instrument named Kruss DSA 100 (Drop Shape Analyzer). A pendant drop is a drop of the filtered formulation was suspended at the tip of a 14-gauge needle with air as the surrounding phase. The silhouette of the axisymmetric formulation drop is imaged at regular time intervals and iteratively fit to Young-Laplace equation to measure its dynamic surface tension as a function of time. This robust method is commonly employed due to a high-speed and precise estimation of interfacial tension based on drop curvature and concentration of the formulation. […]
[formula] where Γeq is the equilibrium molar surface concentration, Γ∞ is the maximum molar surface concentration, C is the bulk concentration of the aqueous formulation, α and β are adsorption and desorption constants, R is the ideal gas constant, γO is the interfacial tension of the pure solvent (PBS), γ is the equilibrium interfacial tension recorded after 12 minutes of interfacial surface generation, and T is the operating temperature for acquisition of interfacial tension of drug/BAK formulation (recorded at room temperature, 298 K). […]

[2] = Protocol: The partition coefficients of hydrophilic drugs and BAK in p-HEMA, p-HEMA/t-butyl methacrylate, and p-HEMA/TRIS/t-butyl methacrylate particles were obtained by drug uptake studies. The mass of drug or BAK partitioned into p-HEMA hydrogel matrix was determined by monitoring the amount of drug or BAK lost in the concentrated aqueous drug/PBS or BAK/PBS loading solutions. The amount of drug loss from the concentrated aqueous phase was quantified by time-dependent absorbance measurements using UV-Vis spectrophotometry in a broad spectral range. […]
Time-dependent equilibrium interfacial tension measured via pendant drop tensiometry can be used to quantify the amount of BAK loss from the concentrated aqueous phase. […]
The partition coefficient of BAK in p-HEMA and p-HEMA/Tert-butyl methacrylate particle matrices were obtained by uptake studies. […] The mass of BAK partitioned in the p-HEMA and p-HEMA/TBM particle matrix was determined by monitoring the amount of BAK lost in the concentrated aqueous BAK/PBS loading solutions. The amount of BAK lost from the concentrated aqueous phase was quantified by time-dependent absorbance measurements using UV-Vis spectrophotometry (Genesys™ 10 UV, Thermo Spectronic, Rochester, NY, USA) over a wavelength range of 190-500 nm. […]

Row | Substance | Γ∞ (maximum surface coverage) [1] | β/α (ratio of kinetic rate constants) [1] | partition coefficient for BAK [2]
1 | Benzalkonium chloride [BAK] | 0.003309 mol/m^2 | 462.14 m^3/mol | 
2 | poly(hydroxyethyl methacrylate) [p-HEMA] |  |  | 100-500
